Experiments:
[1] = test system: non-small cell lung cancer cell line H460; experiment: In vitro human cancer cell line cytotoxicity (proliferation) assay in H460, CellTiter-Glo, 72 hours; format: cell-based; details: H460 cells, DMSO condition (no AKR1C3 inhibitor), read-out: CTG H460: Avg IC50 (nM) [Assay Condition: DMSO]
Method in brief: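 IC50s in nM come from CellTiter-Glo viability read after 72 h of compound exposure. Compounds went in from 10 mM DMSO stocks onto H460 cells, which had been plated at 3×10^3 per well and grown 24 h beforehand at 37 °C, 5% CO2.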

[2] = test system: non-small cell lung cancer cell line H460; experiment: H460 proliferation assay in the presence of 3 uM ASP9521 (AKR1C3 specific inhibitor); format: cell-based, human; details: H460 cells, CellTiter-Glo, 72 hours, in the presence of 3 uM ASP9521 added 4 hours prior to compounds; read-out: CTG H460: Avg IC50 (nM) [Assay Condition: ASP9521]
Method in brief: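 AKR1C3 blocked with 3 uM ASP9521 given 4 h ahead of test compounds. H460 cells, plated 24 h earlier, were then treated for 72 h at 37 °C in 5% CO2. CellTiter-Glo luminescence gave viability.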

CC(OP(=O)(N1CC1C)N1CC1C)c1ccc([N+](=O)[O-])c(Oc2cccc(C(=O)N(C)C)c2)c1 (centres unmarked) [Example 205]
IC50 ([1]; Homo sapiens, NCI-H460, 72 h): < 10 nM | IC50 [2]: 184 nM

CC1CN1P(=O)(OCc1ccc([N+](=O)[O-])c(Oc2cccc(C(=O)N(C)C)c2)c1)N1CC1C (centres unmarked) [Example 206, 3-(3-(dimethylcarbamoyl)phenoxy)-4-nitrobenzyl bis(2-methylaziridin-1-yl)phosphinate]
IC50 ([1]; Homo sapiens, NCI-H460, 72 h): < 10 nM | IC50 [2]: 82.3 nM

C[C@H]1CN1P(=O)(OCc1ccc([N+](=O)[O-])c(Oc2cccc(C(=O)N(C)C)c2)c1)N1C[C@@H]1C (some centres unmarked) [Example 207]
IC50 ([1]; Homo sapiens, NCI-H460, 72 h): < 10 nM | IC50 [2]: 217 nM

C[C@@H]1CN1P(=O)(OCc1ccc([N+](=O)[O-])c(Oc2cccc(C(=O)N(C)C)c2)c1)N1C[C@H]1C (some centres unmarked) [Example 208]
IC50 ([1]; Homo sapiens, NCI-H460, 72 h): < 10 nM | IC50 [2]: 184 nM

CC(OP(=O)(N1C[C@H]1C)N1C[C@H]1C)c1ccc([N+](=O)[O-])c(Oc2cccc(C(=O)N(C)C)c2)c1 (some centres unmarked) [Example 210]
IC50 ([1]; Homo sapiens, NCI-H460, 72 h): < 10 nM | IC50 [2]: 294 nM

CC(OP(=O)(N1C[C@@H]1C)N1C[C@@H]1C)c1ccc([N+](=O)[O-])c(Oc2cccc(C(=O)N(C)C)c2)c1 (some centres unmarked) [Example 211]
IC50 ([1]; Homo sapiens, NCI-H460, 72 h): < 10 nM | IC50 [2]: 1270 nM

CC(OP(=O)(N1C[C@H]1C)N1C[C@H]1C)c1ccc([N+](=O)[O-])c(Oc2cccc(C(=O)N(C)C)c2)c1 (some centres unmarked) [Example 212]
IC50 [1]: < 10 nM | IC50 [2]: 958 nM

CC(OP(=O)(N1C[C@@H]1C)N1C[C@@H]1C)c1ccc([N+](=O)[O-])c(Oc2ccc(C(=O)N(C)C)cc2)c1 (some centres unmarked) [Example 213]
IC50 ([1]; Homo sapiens, NCI-H460, 72 h): < 10 nM | IC50 [2]: 1200 nM

CC(OP(=O)(N1C[C@@H]1C)N1C[C@@H]1C)c1ccc([N+](=O)[O-])c(Oc2ccc(C(=O)N(C)C)cc2)c1 (some centres unmarked) [Example 214]
IC50 [1]: < 10 nM | IC50 [2]: 913 nM

CC(OP(=O)(N1C[C@H]1C)N1C[C@H]1C)c1ccc([N+](=O)[O-])c(Oc2ccc(C(=O)N(C)C)cc2)c1 (some centres unmarked) [Example 215]
IC50 ([1]; Homo sapiens, NCI-H460, 72 h): < 10 nM | IC50 [2]: 3780 nM

CC(OP(=O)(N1C[C@H]1C)N1C[C@H]1C)c1ccc([N+](=O)[O-])c(Oc2ccc(C(=O)N(C)C)cc2)c1 (some centres unmarked) [Example 216]
IC50 [1]: < 10 nM | IC50 [2]: 3240 nM

CC(OP(=O)(N1C[C@@H]1C)N1C[C@@H]1C)c1ccc([N+](=O)[O-])c(Oc2ccc(-c3ccccc3)cc2)c1 (some centres unmarked) [Example 217]
IC50 ([1]; Homo sapiens, NCI-H460, 72 h): < 10 nM | IC50 [2]: 1600 nM

CC(OP(=O)(N1C[C@H]1C)N1C[C@H]1C)c1ccc([N+](=O)[O-])c(Oc2ccc(-c3ccccc3)cc2)c1 (some centres unmarked) [Example 218]
IC50 ([1]; Homo sapiens, NCI-H460, 72 h): < 10 nM | IC50 [2]: 1370 nM

CC(OP(=O)(N1C[C@@H]1C)N1C[C@@H]1C)c1ccc([N+](=O)[O-])c(Oc2ccc(-c3ccccc3)cc2)c1 (some centres unmarked) [Example 219]
IC50 [1]: < 10 nM | IC50 [2]: 2750 nM

CC(OP(=O)(N1C[C@H]1C)N1C[C@H]1C)c1ccc([N+](=O)[O-])c(Oc2ccc(-c3ccccc3)cc2)c1 (some centres unmarked) [Example 220]
IC50 [1]: < 10 nM | IC50 [2]: 5050 nM

CC(OP(=O)(N1C[C@@H]1C)N1C[C@@H]1C)c1ccc([N+](=O)[O-])c(Oc2ccc(-c3ccc(F)cn3)c(F)c2)c1 (some centres unmarked) [Example 221]
IC50 ([1]; Homo sapiens, NCI-H460, 72 h): < 10 nM | IC50 [2]: 1210 nM

CC(OP(=O)(N1C[C@H]1C)N1C[C@H]1C)c1ccc([N+](=O)[O-])c(Oc2ccc(-c3ccc(F)cn3)c(F)c2)c1 (some centres unmarked) [Example 222]
IC50 ([1]; Homo sapiens, NCI-H460, 72 h): 10 to 50 nM | IC50 [2]: 3260 nM

CC(OP(=O)(N1C[C@@H]1C)N1C[C@@H]1C)c1ccc([N+](=O)[O-])c(Oc2ccc(-c3ccc(F)cn3)c(F)c2)c1 (some centres unmarked) [Example 223]
IC50 [1]: < 10 nM | IC50 [2]: 2590 nM

CC(OP(=O)(N1C[C@H]1C)N1C[C@H]1C)c1ccc([N+](=O)[O-])c(Oc2ccc(-c3ccc(F)cn3)c(F)c2)c1 (some centres unmarked) [Example 224]
IC50 [1]: < 10 nM | IC50 [2]: 6460 nM

C[C@@H]1CN1P(=O)(OC(c1ccc([N+](=O)[O-])c(Oc2cccc(C(=O)N(C)C)c2)c1)C(F)(F)F)N1C[C@H]1C (some centres unmarked) [Example 226]
IC50 ([1]; Homo sapiens, NCI-H460, 72 h): 10 to 50 nM | IC50 [2]: > 10000 nM

C[C@H]1CN1P(=O)(OC(c1ccc([N+](=O)[O-])c(Oc2cccc(C(=O)N(C)C)c2)c1)C(F)(F)F)N1C[C@@H]1C (some centres unmarked) [Example 227]
IC50 ([1]; Homo sapiens, NCI-H460, 72 h): 10 to 50 nM | IC50 [2]: 9760 nM

C[C@@H]1CN1P(=O)(OC(c1ccc([N+](=O)[O-])c(Oc2cccc(C(=O)N(C)C)c2)c1)C(F)(F)F)N1C[C@H]1C (some centres unmarked) [Example 228]
IC50 [1]: 10 to 50 nM | IC50 [2]: > 10000 nM

CN(C)C(=O)c1cccc(Oc2cc3cc(COP(=O)(N4CC4)N4CC4)oc3cc2[N+](=O)[O-])c1 [Example 229, (5-(3-(dimethylcarbamoyl)phenoxy)-6-nitrobenzofuran-2-yl)methyl di(aziridin-1-yl)phosphinate]
IC50 ([1]; Homo sapiens, NCI-H460, 72 h): < 10 nM | IC50 [2]: 515 nM

O=[N+]([O-])c1cc2oc(COP(=O)(N3CC3)N3CC3)cc2cc1Oc1ccc(-c2ccccc2)cc1 [Example 230, (5-([1,1′-biphenyl]-4-yloxy)-6-nitrobenzofuran-2-yl)methyl di(aziridin-1-yl)phosphinate]
IC50 ([1]; Homo sapiens, NCI-H460, 72 h): < 10 nM | IC50 [2]: 846 nM

O=C(c1ccc(Oc2cc3cc(COP(=O)(N4CC4)N4CC4)oc3cc2[N+](=O)[O-])cc1)N1CCOCC1 [Example 231]
IC50 ([1]; Homo sapiens, NCI-H460, 72 h): < 10 nM | IC50 [2]: 278 nM

O=C(NC1CC1)c1cccc(Oc2c([N+](=O)[O-])ccc3c2CCC3OP(=O)(N2CC2)N2CC2)c1 (centres unmarked) [Example 234]
IC50 ([1]; Homo sapiens, NCI-H460, 72 h): < 10 nM | IC50 [2]: 865 nM

O=C(c1cccc(Oc2c([N+](=O)[O-])ccc3c2CCC3OP(=O)(N2CC2)N2CC2)c1)N1CCCCC1 (centres unmarked) [Example 236]
IC50 [1]: < 10 nM | IC50 [2]: 715 nM

O=C(c1cccc(Oc2c([N+](=O)[O-])ccc3c2CCC3OP(=O)(N2CC2)N2CC2)c1)N1CCCCC1 (centres unmarked) [Example 238]
IC50 [1]: < 10 nM | IC50 [2]: 1160 nM

CN(C(=O)c1cccc(Oc2c([N+](=O)[O-])ccc3c2CCC3OP(=O)(N2CC2)N2CC2)c1)c1ccccn1 (centres unmarked) [Example 247]
IC50 [1]: < 10 nM | IC50 [2]: 764 nM

C[C@@H]1CN(C(=O)c2cccc(Oc3c([N+](=O)[O-])ccc4c3CC[C@H]4OP(=O)(N3CC3)N3CC3)c2)C[C@H](C)O1 [Example 248]
IC50 [1]: < 10 nM | IC50 [2]: 1650 nM

O=C(c1cccc(Oc2c([N+](=O)[O-])ccc3c2CCC3OP(=O)(N2CC2)N2CC2)c1)N1C[C@H]2CC[C@@H](C1)O2 (some centres unmarked) [Example 249]
IC50 ([1]; Homo sapiens, NCI-H460, 72 h): < 10 nM | IC50 [2]: 1340 nM

O=C(c1cccc(Oc2c([N+](=O)[O-])ccc3c2CCC3OP(=O)(N2CC2)N2CC2)c1)N1C[C@H]2CC[C@@H](C1)O2 (some centres unmarked) [Example 250]
IC50 [1]: < 10 nM | IC50 [2]: 1220 nM

CN(C)C(=O)c1cncc(Oc2c([N+](=O)[O-])ccc3c2CC[C@@H]3OP(=O)(N2CC2)N2CC2)c1 [Example 252]
IC50 [1]: 10 to 50 nM | IC50 [2]: 2640 nM

CN(C(=O)c1cccc(Oc2c([N+](=O)[O-])ccc3c2CC[C@@H]3OP(=O)(N2CC2)N2CC2)c1)c1cnn(C)c1 [Example 254]
IC50 [1]: < 10 nM | IC50 [2]: 786 nM

CN(C)C(=O)c1cc(Oc2c([N+](=O)[O-])ccc3c2CC[C@@H]3OP(=O)(N2CC2)N2CC2)ccc1F [Example 255]
IC50 [1]: < 10 nM | IC50 [2]: 832 nM

O=C(c1cc(Oc2c([N+](=O)[O-])ccc3c2CC[C@@H]3OP(=O)(N2CC2)N2CC2)ccc1F)N1CCC1 [Example 257]
IC50 [1]: < 10 nM | IC50 [2]: 1810 nM

O=C(c1cc(Oc2c([N+](=O)[O-])ccc3c2CC[C@@H]3OP(=O)(N2CC2)N2CC2)ccc1F)N1CC(F)(F)C1 [Example 258]
IC50 [1]: < 10 nM | IC50 [2]: 2060 nM

O=C(c1cc(Oc2c([N+](=O)[O-])ccc3c2CC[C@@H]3OP(=O)(N2CC2)N2CC2)ccc1F)N1CCCC1 [Example 259]
IC50 [1]: < 10 nM | IC50 [2]: 1550 nM

CNC(=O)c1cc(Oc2c([N+](=O)[O-])ccc3c2CC[C@@H]3OP(=O)(N2CC2)N2CC2)ccc1F [Example 260]
IC50 [1]: < 10 nM | IC50 [2]: 734 nM

O=C(NC1CC1)c1cc(Oc2c([N+](=O)[O-])ccc3c2CC[C@@H]3OP(=O)(N2CC2)N2CC2)ccc1F [Example 261]
IC50 [1]: 10 to 50 nM | IC50 [2]: 5690 nM

O=C(NC1CCC1)c1ccc(Oc2c([N+](=O)[O-])ccc3c2CC[C@H]3OP(=O)(N2CC2)N2CC2)cc1 [Example 262]
IC50 [1]: < 10 nM | IC50 [2]: 945 nM

O=C(NC1CC1)c1ccc(Oc2c([N+](=O)[O-])ccc3c2CC[C@H]3OP(=O)(N2CC2)N2CC2)cc1 [Example 263]
IC50 [1]: < 10 nM | IC50 [2]: 943 nM

Cc1ccnc(-c2ccc(Oc3c([N+](=O)[O-])ccc4c3CC[C@@H]4OP(=O)(N3CC3)N3CC3)cc2F)n1 [Example 267, (S)-4-(3-fluoro-4-(4-methylpyrimidin-2-yl)phenoxy)-5-nitro-2,3-dihydro-1H-inden-1-yl di(aziridin-1-yl)phosphinate]
IC50 ([1]; Homo sapiens, NCI-H460, 72 h): < 10 nM | IC50 [2]: 639 nM

O=[N+]([O-])c1ccc2c(c1Oc1ccc(-c3ncc(F)cn3)c(F)c1)CC[C@@H]2OP(=O)(N1CC1)N1CC1 [Example 268, (S)-4-(3-fluoro-4-(5-fluoropyrimidin-2-yl)phenoxy)-5-nitro-2,3-dihydro-1H-inden-1-yl di(aziridin-1-yl)phosphinate]
IC50 ([1]; Homo sapiens, NCI-H460, 72 h): < 10 nM | IC50 [2]: 1110 nM

O=[N+]([O-])c1ccc2c(c1Oc1ccc(-c3ncc(F)cn3)c(F)c1)CC[C@H]2OP(=O)(N1CC1)N1CC1 [Example 269, (R)-4-(3-fluoro-4-(5-fluoropyrimidin-2-yl)phenoxy)-5-nitro-2,3-dihydro-1H-inden-1-yl di(aziridin-1-yl)phosphinate]
IC50 ([1]; Homo sapiens, NCI-H460, 72 h): 10 to 50 nM | IC50 [2]: 761 nM

O=[N+]([O-])c1ccc2c(c1Oc1ccc(-c3ccc(Cl)cc3)cc1)CC[C@H]2OP(=O)(N1CC1)N1CC1 [Example 270]
IC50 [1]: 10 to 50 nM | IC50 [2]: 5550 nM

— US20260167656A1, “PHOSPHORAMIDATE COMPOUNDS AND USES THEREOF” (ALLORION THERAPEUTICS INC, priority 2022, published 2026)
